ChEMBL document CHEMBL1201862, “PubChem BioAssay data set” (2004)
Active and inactive are the calls of the source.

Key:
H4 = experiment: Luminescence Cell-Based Dose Response HTS to Identify Activators of 5'UTR Stem-Loop Driven Prion Protein mRNA Translation in H4 Neuroglioblastoma Cells. [Related pubchem assays: 1829 (Project Summary), 1814 (Primary HTS)]; type: functional; details: Homo sapiens
Vero [1] = experiment: cells; type: functional; details: Chlorocebus sabaeus
Vero [2] = experiment: cells; type: functional, cell-based; details: Chlorocebus sabaeus
[3] = Luminescence Cell-Based Dose Confirmation HTS to Identify Activators of 5'UTR Stem-Loop Driven Alpha-Synuclein mRNA Translation in H4 Neuroglioblastoma Cells. [Related pubchem assays: 1829 (Project Summary), 1814 (Primary HTS)]; type: functional
[4] = Luminescence Cell-Based Dose Response HTS to Identify Activators of Luciferase Translation or Activity in H4 […] Cells. [Related pubchem assays: 1829 (Project Summary), 1814 (Primary HTS)]; type: functional
[5] = viability of uninfected HEp-2 cells – cell-based, HTS, cytotoxicity control for RSV inhibitor project, dose response (AID 2410); type: functional; details: human respiratory syncytial virus
[6] = viability inhibitors of stage V gametocytes – luminescence, dose response (AID 1117278); type: functional, cell-based;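 also: gametocytes exposed to compound for 24 hours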
[7] = viability loss in human Jurkat cells – cell-based, luminescence, cytotoxicity control for P. falciparum gametocyte viability project, dose response (AID 1117277); type: functional;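 also: potency reflects loss of cellular ATP meaning fewer viable cells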
Mucolipin-3 = biological target: T1, Mucolipin-3 (Homo sapiens, UniProt Q8TDD5); experiment: Dose response cell-based high-throughput screening assay for agonists of the transient receptor potential channel ML3 (TRPML3). [Related pubchem assays: 1526, 1424, 1448 ]; type: functional
T1 sequence (Q8TDD5 whole entry): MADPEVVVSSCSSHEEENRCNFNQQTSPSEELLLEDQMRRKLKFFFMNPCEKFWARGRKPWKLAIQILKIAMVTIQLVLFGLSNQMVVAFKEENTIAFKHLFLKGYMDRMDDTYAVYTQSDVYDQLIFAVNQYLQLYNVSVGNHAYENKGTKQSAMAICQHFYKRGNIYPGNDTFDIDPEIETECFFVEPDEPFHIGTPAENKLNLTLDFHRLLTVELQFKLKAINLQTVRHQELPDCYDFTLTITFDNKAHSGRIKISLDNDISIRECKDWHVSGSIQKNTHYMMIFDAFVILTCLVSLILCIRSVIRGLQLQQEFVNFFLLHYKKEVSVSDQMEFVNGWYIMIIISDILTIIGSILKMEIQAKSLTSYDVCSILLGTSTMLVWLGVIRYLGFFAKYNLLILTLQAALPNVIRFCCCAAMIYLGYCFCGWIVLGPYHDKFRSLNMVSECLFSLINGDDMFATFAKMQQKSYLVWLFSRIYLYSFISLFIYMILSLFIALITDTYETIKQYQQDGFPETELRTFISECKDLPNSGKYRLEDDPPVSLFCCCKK

Ion channel NompC = Ion channel NompC (Danio rerio, UniProt Q7T1G6); experiment: Fluorescence counterscreen assay for TRPML3 agonists: dose response cell-based high-throughput screening assay to identify agonists of the transient receptor potential channel N1 (TRPN1). [Related pubchem assays: 1526, 1424, 1448 ]; type: functional
Sequence of Ion channel NompC (Q7T1G6 whole entry): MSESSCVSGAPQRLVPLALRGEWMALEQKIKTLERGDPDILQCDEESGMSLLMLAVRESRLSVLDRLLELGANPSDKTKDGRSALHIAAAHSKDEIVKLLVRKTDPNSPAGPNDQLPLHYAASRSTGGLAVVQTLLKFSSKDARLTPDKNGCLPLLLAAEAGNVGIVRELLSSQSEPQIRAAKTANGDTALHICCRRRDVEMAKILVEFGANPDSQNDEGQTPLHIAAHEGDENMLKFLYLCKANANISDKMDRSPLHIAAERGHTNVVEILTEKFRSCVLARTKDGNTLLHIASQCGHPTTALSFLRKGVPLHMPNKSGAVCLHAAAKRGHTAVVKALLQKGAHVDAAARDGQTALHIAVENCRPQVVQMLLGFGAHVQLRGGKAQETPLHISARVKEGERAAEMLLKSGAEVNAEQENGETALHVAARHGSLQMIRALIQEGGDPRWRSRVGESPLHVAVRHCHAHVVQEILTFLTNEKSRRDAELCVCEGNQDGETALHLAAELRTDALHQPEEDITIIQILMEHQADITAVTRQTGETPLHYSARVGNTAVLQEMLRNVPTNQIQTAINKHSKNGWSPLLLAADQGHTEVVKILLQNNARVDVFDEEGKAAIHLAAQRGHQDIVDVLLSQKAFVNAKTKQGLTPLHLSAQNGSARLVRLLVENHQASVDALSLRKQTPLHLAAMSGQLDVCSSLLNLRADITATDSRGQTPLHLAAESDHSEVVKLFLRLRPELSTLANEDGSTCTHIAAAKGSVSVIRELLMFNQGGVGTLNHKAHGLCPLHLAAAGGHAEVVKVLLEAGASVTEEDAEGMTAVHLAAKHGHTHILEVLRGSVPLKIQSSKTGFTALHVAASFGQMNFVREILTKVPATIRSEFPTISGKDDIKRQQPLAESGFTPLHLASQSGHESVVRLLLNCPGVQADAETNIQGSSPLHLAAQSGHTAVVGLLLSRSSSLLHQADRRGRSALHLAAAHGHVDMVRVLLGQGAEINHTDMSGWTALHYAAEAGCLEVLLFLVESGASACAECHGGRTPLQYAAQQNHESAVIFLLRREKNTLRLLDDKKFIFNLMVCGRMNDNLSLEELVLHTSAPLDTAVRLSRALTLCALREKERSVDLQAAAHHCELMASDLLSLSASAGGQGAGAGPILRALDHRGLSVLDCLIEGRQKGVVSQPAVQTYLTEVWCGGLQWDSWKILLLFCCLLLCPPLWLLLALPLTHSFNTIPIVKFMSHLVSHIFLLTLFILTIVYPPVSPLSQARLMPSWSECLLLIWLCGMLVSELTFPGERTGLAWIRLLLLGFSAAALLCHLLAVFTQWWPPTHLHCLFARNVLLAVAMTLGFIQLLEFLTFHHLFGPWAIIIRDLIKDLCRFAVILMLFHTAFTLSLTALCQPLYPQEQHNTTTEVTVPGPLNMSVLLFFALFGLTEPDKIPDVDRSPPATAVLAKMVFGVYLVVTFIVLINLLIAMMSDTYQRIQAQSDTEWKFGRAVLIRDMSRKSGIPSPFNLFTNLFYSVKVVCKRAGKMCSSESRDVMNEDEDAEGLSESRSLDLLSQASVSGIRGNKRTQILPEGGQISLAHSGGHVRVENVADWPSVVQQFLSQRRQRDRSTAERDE

Estrogen receptor = biological target: T2, Estrogen receptor (Homo sapiens, UniProt P03372);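 also: potency for inhibiting coactivator peptide recruitment to the receptor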
T2 sequence (P03372 whole entry): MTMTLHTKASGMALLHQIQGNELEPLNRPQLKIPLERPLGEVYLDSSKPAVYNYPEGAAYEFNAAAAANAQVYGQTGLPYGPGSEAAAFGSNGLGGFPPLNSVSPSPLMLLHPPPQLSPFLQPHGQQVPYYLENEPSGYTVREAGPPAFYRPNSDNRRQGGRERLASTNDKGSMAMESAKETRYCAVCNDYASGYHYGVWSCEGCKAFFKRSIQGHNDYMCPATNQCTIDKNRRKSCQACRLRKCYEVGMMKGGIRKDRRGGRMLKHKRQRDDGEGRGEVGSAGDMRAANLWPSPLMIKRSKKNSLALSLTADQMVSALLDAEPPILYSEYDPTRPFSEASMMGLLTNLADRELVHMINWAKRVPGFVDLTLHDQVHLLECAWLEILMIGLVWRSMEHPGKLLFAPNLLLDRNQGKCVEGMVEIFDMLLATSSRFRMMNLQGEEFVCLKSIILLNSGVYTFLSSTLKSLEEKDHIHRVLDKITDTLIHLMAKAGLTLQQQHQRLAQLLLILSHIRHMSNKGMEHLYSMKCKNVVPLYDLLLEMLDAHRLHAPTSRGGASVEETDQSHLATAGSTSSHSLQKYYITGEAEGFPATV

[8] = viability of PTEN-deleted HCT116 cells – cell-based, HCT116 PTEN knockout, dose response (AID 1047); type: functional;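 also: HCT116 colon tumor cells with PTEN knocked out; cells exposed to compound for 60 hours before readout; potency for loss of cell viability measured by luminescence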
[9] = viability of HCT116 lacking mutant beta-catenin – cell-based, human colon tumor, dose response (AID 1045); type: functional;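 also: HCT116 colon tumor cells with beta catenin knocked out; cells exposed to compound for 60 hours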
[10] = biological target: T3, RNA-binding protein pos-1 (Caenorhabditis elegans, UniProt G5EF15); experiment: disruptors of C. elegans POS-1 RNA interaction – biochemical, fluorescence polarization, dose response (AID 1964);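 also: purified POS-1 fused to maltose binding protein made in E. coli; potency of compounds blocking POS-1 binding to fluorescent RNA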
T3 sequence (G5EF15 whole entry): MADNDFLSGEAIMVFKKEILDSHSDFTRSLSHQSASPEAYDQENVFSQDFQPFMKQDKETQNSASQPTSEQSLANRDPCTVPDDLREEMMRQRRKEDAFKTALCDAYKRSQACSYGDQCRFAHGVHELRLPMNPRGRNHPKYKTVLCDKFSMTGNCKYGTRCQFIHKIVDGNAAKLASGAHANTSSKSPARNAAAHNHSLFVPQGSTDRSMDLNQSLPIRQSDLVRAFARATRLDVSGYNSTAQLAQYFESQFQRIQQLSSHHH

Leucine aminopeptidase = biological target: T4, Leucine aminopeptidase (Plasmodium falciparum 3D7, UniProt Q8IL11); experiment: P. falciparum M17LAP inhibitors, primary screen, biochemical, fluorogenic H-Leu-NHMec substrate, 1536-well (AID 1619); type: functional
T4 sequence (Q8IL11 whole entry): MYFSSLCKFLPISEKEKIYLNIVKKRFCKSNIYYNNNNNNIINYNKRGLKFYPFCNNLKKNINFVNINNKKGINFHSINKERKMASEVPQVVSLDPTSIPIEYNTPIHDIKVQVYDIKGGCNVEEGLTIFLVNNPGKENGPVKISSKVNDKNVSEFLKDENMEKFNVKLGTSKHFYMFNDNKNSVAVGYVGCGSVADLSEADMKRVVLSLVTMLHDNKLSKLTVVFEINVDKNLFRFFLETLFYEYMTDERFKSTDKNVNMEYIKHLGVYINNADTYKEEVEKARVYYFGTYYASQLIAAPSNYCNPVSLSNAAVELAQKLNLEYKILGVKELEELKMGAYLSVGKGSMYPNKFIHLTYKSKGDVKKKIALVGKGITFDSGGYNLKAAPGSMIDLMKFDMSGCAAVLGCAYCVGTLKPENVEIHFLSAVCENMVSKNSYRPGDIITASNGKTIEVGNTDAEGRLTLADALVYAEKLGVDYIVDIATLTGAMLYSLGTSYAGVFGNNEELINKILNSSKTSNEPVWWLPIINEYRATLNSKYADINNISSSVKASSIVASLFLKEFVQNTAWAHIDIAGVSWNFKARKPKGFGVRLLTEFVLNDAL

[11] = biological target: T5, Zinc finger protein mex-5 (Caenorhabditis elegans, UniProt Q9XUB2); experiment: potency of MEX-5 RNA-binding blockers – biochemical, C. elegans, fluorescence polarization, dose response (AID 1960)
T5 sequence (Q9XUB2 whole entry): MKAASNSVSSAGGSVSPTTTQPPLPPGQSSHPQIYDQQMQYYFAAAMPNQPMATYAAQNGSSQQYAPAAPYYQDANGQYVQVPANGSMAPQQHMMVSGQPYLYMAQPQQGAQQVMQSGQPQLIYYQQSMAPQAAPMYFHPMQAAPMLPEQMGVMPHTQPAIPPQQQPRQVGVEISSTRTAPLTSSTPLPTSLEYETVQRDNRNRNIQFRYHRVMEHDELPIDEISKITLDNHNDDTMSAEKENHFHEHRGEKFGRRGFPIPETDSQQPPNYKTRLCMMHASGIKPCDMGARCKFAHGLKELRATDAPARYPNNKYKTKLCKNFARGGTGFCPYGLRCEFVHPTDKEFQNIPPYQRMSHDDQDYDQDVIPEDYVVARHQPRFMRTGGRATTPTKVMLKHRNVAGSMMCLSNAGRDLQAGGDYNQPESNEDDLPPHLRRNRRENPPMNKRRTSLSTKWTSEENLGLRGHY

[12] = biological target: T6, Mannose-6-phosphate isomerase (Homo sapiens, UniProt P34949); experiment: MPI enzyme activity inhibition – biochemical, fluorescence intensity, coupled assay, primary screen (AID 1209)
T6 sequence (P34949 whole entry): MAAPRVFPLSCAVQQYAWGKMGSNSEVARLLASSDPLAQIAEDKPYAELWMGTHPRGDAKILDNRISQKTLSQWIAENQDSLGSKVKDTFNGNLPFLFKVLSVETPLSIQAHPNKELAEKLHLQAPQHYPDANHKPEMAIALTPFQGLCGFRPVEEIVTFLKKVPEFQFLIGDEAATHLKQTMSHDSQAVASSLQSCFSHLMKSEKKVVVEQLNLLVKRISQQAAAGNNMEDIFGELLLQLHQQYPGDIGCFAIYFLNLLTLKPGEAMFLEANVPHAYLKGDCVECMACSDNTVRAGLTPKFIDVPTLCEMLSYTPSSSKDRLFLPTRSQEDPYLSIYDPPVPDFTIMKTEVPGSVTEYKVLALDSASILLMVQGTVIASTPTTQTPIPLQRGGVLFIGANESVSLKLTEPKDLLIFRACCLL

[13] = biological target: T7, Calpain-2 catalytic subunit (Sus scrofa, UniProt P43367); experiment: m-calpain protease blockers, concentration series – biochemical, fluorogenic peptide substrate, dose response (AID 1420); type: functional
T7 sequence (P43367 whole entry): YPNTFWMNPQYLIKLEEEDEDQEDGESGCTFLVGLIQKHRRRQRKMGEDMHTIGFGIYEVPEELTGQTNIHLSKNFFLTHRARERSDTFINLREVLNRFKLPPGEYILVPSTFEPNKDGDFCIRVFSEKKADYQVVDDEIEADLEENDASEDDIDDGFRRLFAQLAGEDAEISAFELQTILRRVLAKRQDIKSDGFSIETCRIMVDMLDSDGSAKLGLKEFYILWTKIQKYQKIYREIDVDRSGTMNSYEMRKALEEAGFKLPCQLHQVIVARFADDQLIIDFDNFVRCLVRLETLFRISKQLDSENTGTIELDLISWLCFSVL

[14] = P. falciparum Dd2 growth inhibitors, dose response, SYBR Green, cherry-picked samples (AID 1159567); type: functional, cell-based
[15] = growth inhibition of yeast DHODH-expressing 3D7 parasites – SYBR Green, dry powder samples, dose response (AID 1159570); type: functional, cell-based;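 also: parasite growth measured after 72 hours of compound exposure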
[16] = Dd2 malaria parasite growth inhibition potency – SYBR Green, dry powder samples, dose response (AID 1159566); type: functional, cell-based;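 also: potency for growth inhibition with lower SYBR green DNA signal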
[17] = growth inhibition of PfATP4-mutant resistant parasites – NITD609-resistant line, SYBR Green, dry powder, dose response (AID 1159571); type: functional, cell-based;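 also: parasites synchronized at ring stage by sorbitol before testing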
[18] = toxicity to human HepG2 hepatoma cells – cell-based, plate reader, dry powder samples, cytotoxicity control, dose response (AID 1159569); type: functional;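 also: inhibitor potency with signal falling toward the positive control level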

Cn1c(C(=O)NCc2cccs2)cc2oc3ccccc3c21
IC50 (cells): 18.4 µM (active)
EC50 (H4): > 120 µM (not active)
CC50 (Vero [1]): > 25 µM (active)
IC50 (Vero [2]): 1.32 µM (active)
EC50 [3]: > 120 µM (not active)
EC50 [4]: 2.92 µM (active)
CC50 [5]: 3.9 µM (active)

O=C(CSc1nnc(-c2ccc(F)cc2)o1)NC1CCCCC1
IC50 [6]: > 109 µM (inactive)
IC50 [7]: > 83.3 µM (inactive)

O=C(c1ccccc1F)N(NC(=O)C(O)(c1ccccc1)c1ccccc1)c1ccccc1
EC50 (Mucolipin-3): 10.4 µM (not active)
EC50 (Ion channel NompC): > 29.9 µM (not active)

Cc1nn(Cc2ccccc2)c(C)c1NC(=O)CSc1nnc(-c2cc(Cl)ccc2O)n1C
IC50 (Estrogen receptor): > 50 µM (not active)

O=C(N=Nc1c(O)[nH]c2ccc([N+](=O)[O-])cc12)c1ccccc1[N+](=O)[O-]
IC50 (cells): 26.2 µM (active)

Cc1cccc(N2CCN(c3nc4ccccc4n4cnnc34)CC2)c1C
IC50 (Estrogen receptor): 38.8 µM (not active)
EC50 [8]: 23.4 µM (active)
EC50 [9]: 25.4 µM (active)

C=CCCC(=O)Nc1ccc(Br)cn1
IC50 [6]: > 109 µM (inactive)
IC50 [7]: > 83.3 µM (inactive)

CCN(c1ccccc1)S(=O)(=O)c1ccc(Cl)c(NC(=O)CSc2n[nH]c(N)n2)c1
IC50 (cells): 7.78 µM (active)
CC50 [5]: 44.2 µM (active)

O=C1C2CC=C(Cl)CC2C(=O)N1CCCCCCN1C(=O)C2CC=C(Cl)CC2C1=O (stereo unspecified)
IC50 (Estrogen receptor): 24.7 µM (active)
EC50 [10]: 14.4 µM (active)
IC50 (Leucine aminopeptidase): 37.2 µM (active)
EC50 [11]: 12.2 µM (active)

N#C/C(=C\c1cccnc1)C(=O)Nc1ccccc1
IC50 [12]: > 50 µM (not active)

O=S1(=O)OCCC(c2ccccc2)N1Cc1ccccc1 (stereo unspecified)
IC50 [6]: > 109 µM (inactive)
IC50 [7]: > 83.3 µM (inactive)

Cc1cc(C(C)(C)C)oc1C(=O)N(CC(=O)NC1CCCC1)Cc1ccccc1Cl
EC50 (Mucolipin-3): > 29.9 µM (not active)
EC50 (Ion channel NompC): > 29.9 µM (not active)
IC50 [13]: 2.28 µM (not active)

CCc1ccc(N2C(=O)CC(Cn3nc(C)cc3C)C2=O)cc1 (stereo unspecified)
IC50 [6]: > 109 µM (inactive)
IC50 [7]: > 83.3 µM (inactive)

CC(C)Oc1ccc(/C=N/NC(=O)C(CSCc2ccccc2)NC(=O)c2ccc([N+](=O)[O-])cc2)cc1 (stereo unspecified)
EC50 (Mucolipin-3): 0.342 µM (active)
EC50 (Ion channel NompC): > 29.9 µM (not active)

CC1(C)CC(=O)C(/C=N/c2ccc3[nH]ncc3c2)=C(O)C1
IC50 [12]: > 50 µM (not active)

Cc1ccc(/C=N/n2c(S)nnc2-c2ccncc2)cc1
IC50 [12]: 18.3 µM (active)

CO[C@@H]1CN(C)C(=O)c2cc(NC(=O)c3ccccc3F)ccc2OC[C@H](C)N(C(=O)c2ccccc2F)C[C@@H]1C
AC50 [14]: 2.47 µM (active)
AC50 [15]: 2.87 µM (active)
AC50 [16]: 1.1 µM (active)
AC50 [17]: 1.64 µM (active)
AC50 [18]: > 100 µM (inactive)

O=S(=O)(c1ccccc1)N1C[C@@H]2N[C@H](C1)[C@H]2c1ccc(-c2ccc(F)cc2)cc1
AC50 [14]: 1.54 µM (active)
AC50 [15]: 1.27 µM (active)
AC50 [16]: 1.47 µM (active)
AC50 [17]: 1.85 µM (active)
AC50 [18]: 14.3 µM (active)
